Measurements from patent US20060069132A1, “Azolecarboxamide herbicides” (priority 2004, published 2006).
Read-outs that look alike come from different tables or passages of the source.

Legend:
barnyardgrass [1] = experiment: Test C flooded paddy test; type: in vivo, Echinochloa crus-galli; details: for pest or weed control at 62 g/ha / pest or weed control at 125 g/ha / pest or weed control at 250 g/ha / pest or weed control at 500 g/ha: Echinochloa crus-galli; for pest or weed control at 62 g/ha / pest or weed control at 125 g/ha / pest or weed control at 250 g/ha: read-out: Barnyardgrass plant response rating; for pest or weed control at 500 g/ha: read-out: Plant response rating, Barnyardgrass
In short: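 Visual rating, 0 (no effect) to 100 (complete control), vs. controls at 12–14 d in greenhouse. Postemergence: 1–4-leaf plants, 2–18 cm. Paddy: flooded, barnyardgrass at 2-leaf stage.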

rice [2] = experiment: Test C flooded paddy test; type: in vivo, Oryza sativa; details: for plant injury at 62 g/ha / plant injury at 125 g/ha / plant injury at 250 g/ha / plant injury at 500 g/ha: Oryza sativa; for plant injury at 500 g/ha: read-out: Plant response rating, Rice
In short: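 Postemergence sprays applied to plants 2 to 18 cm tall (1- to 4-leaf stage); paddy species grown to 2-leaf stage under flooding. After 12 to 14 days in greenhouse, visual rating versus untreated controls on 0–100 scale (0 no effect, 100 complete control).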

barnyardgrass [3] = experiment: Test A pre-/postemergence herbicide test; type: in vivo, Echinochloa crus-galli; details: for pest or weed control at 500 g/ha / pest or weed control at 2000 g/ha: Echinochloa crus-galli, 240 h
In short: (§1)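 Both application timings were run together: directed soil spray over freshly planted seeds in sandy loam, and runoff spray onto 2–10 cm seedlings. Evaluation after ~10 days in greenhouse used a 0–100 visual scale versus untreated controls.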

rice [4] = experiment: Test B pre-/postemergence herbicide test; type: in vivo, Oryza sativa; details: 0 = no effect, 100 = complete control; for plant injury at 125 g/ha / plant injury at 500 g/ha: Oryza sativa, pre-emergence, 336 h; for plant injury at 125 g/ha: read-out: Rice plant response rating (0 to 100 scale); for plant injury at 500 g/ha: read-out: Plant response rating, Rice
In short: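 Pre: seeds sown, then sprayed. Post: 1–4-leaf plants (2–18 cm) sprayed at the same time. Paddy: flooded, treated at 2-leaf stage. Formulation: non-phytotoxic solvent with surfactant. Greenhouse 13–15 days; visual 0–100 score relative to controls.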

Surinam grass = experiment: Test C pre-/postemergence herbicide test; type: in vivo, Urochloa decumbens; details: for pest or weed control at 62 g/ha / pest or weed control at 250 g/ha / pest or weed control at 500 g/ha: Urochloa decumbens, pre-emergence, 312 h, read-out: Plant response rating, Surinam Grass; for pest or weed control at 62 g/ha / Plant response rating, Surinam Grass: preemergence; for pest or weed control at 500 g/ha: 500 g ai/ha, scale 0 to 100 (0 no effect, 100 complete control), visual, 12 to 14 days
In short: (§2)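 Emerged plants at the 1- to 4-leaf stage (2–18 cm), or freshly planted seeds, received test chemicals in a non-phytotoxic solvent mixture with surfactant. Response was visually scored against controls after 12 to 14 days in the greenhouse, on a 0 (no effect) to 100 (complete control) scale.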

morningglory = experiment: Test A pre-/postemergence herbicide test; type: in vivo, Ipomoea spp.; details: for pest or weed control at 500 g/ha / pest or weed control at 2000 g/ha: Ipomoea, 240 h
In short: as §1

[5] = test system: common (oilseed) sunflower; experiment: Test C pre-/postemergence herbicide test; type: in vivo, Helianthus annuus; details: for pest or weed control at 62 g/ha / pest or weed control at 250 g/ha / pest or weed control at 500 g/ha: Helianthus annuus, pre-emergence, read-out: Plant response rating, Sunflower; for pest or weed control at 62 g/ha / Plant response rating, Sunflower: preemergence; for pest or weed control at 500 g/ha: 500 g ai/ha, scale 0 to 100 (0 no effect, 100 complete control), visual, 12 to 14 days
In short: as §2

large crabgrass = experiment: Test A pre-/postemergence herbicide test; type: in vivo, Digitaria sanguinalis; details: for pest or weed control at 500 g/ha / pest or weed control at 2000 g/ha: Digitaria sanguinalis, 240 h
In short: as §1

[6] = 62 g ai/ha, scale 0 to 100 (0 no effect, 100 complete control)
[7] = 125 g ai/ha, scale 0 to 100 (0 no effect, 100 complete control)
[8] = 250 g ai/ha, scale of 0 to 100, 0 is no effect, 100 is complete control
[9] = 500 g ai/ha, visual rating after 12 to 14 days, scale 0 to 100 (0 no effect, 100 complete control)
[10] = 125 g ai/ha, scale 0 to 100 (0 no effect, 100 complete control), read-out: Rice plant response rating
[11] = 250 g ai/ha, scale of 0 to 100, 0 is no effect, 100 is complete control, read-out: Rice plant response rating
[12] = post-emergence, Postemergence, 500 g ai/ha, 0 to 100 scale, 0 no effect, 100 complete control, read-out: Barnyardgrass plant response rating
[13] = post-emergence, Postemergence, 2000 g ai/ha, 0 to 100 scale, 0 no effect, 100 complete control, read-out: Plant response rating, Barnyardgrass
[14] = pre-emergence, Preemergence, 2000 g ai/ha, visual rating, 0 to 100 scale (0 no effect, 100 complete control), read-out: Barnyardgrass plant response rating
[15] = pre-emergence, preemergence, 500 g ai/ha, visual injury, 0 to 100 scale (0 no effect, 100 complete control), read-out: Barnyardgrass plant response rating
[16] = post-emergence, Postemergence, 500 g ai/ha, 0 to 100 scale, 0 no effect, 100 complete control, read-out: Morningglory plant response rating
[17] = post-emergence, Postemergence, 2000 g ai/ha, 0 to 100 scale, 0 no effect, 100 complete control, read-out: Plant response rating, Morningglory
[18] = pre-emergence, Preemergence, 2000 g ai/ha, visual rating, 0 to 100 scale (0 no effect, 100 complete control), read-out: Morningglory plant response rating
[19] = pre-emergence, preemergence, 500 g ai/ha, visual injury, 0 to 100 scale (0 no effect, 100 complete control), read-out: Morningglory plant response rating
[20] = post-emergence, Postemergence, 500 g ai/ha, 0 to 100 scale, 0 no effect, 100 complete control, read-out: Crabgrass, Large plant response rating
[21] = post-emergence, Postemergence, 2000 g ai/ha, 0 to 100 scale, 0 no effect, 100 complete control, read-out: Plant response rating, Crabgrass, Large
[22] = pre-emergence, Preemergence, 2000 g ai/ha, visual rating, 0 to 100 scale (0 no effect, 100 complete control), read-out: Crabgrass, Large plant response rating
[23] = pre-emergence, preemergence, 500 g ai/ha, visual injury, 0 to 100 scale (0 no effect, 100 complete control), read-out: Crabgrass, Large plant response rating
[24] = Postemergence, 500 g ai/ha, 0 to 100 scale, 0 no effect, 100 complete control
[25] = Postemergence, 2000 g ai/ha, 0 to 100 scale, 0 no effect, 100 complete control
[26] = Preemergence, 2000 g ai/ha, visual rating, 0 to 100 scale (0 no effect, 100 complete control)
[27] = preemergence, 500 g ai/ha, visual injury, 0 to 100 scale (0 no effect, 100 complete control)

CCc1nn(C(C)(C)C)cc1C(=O)Nc1cc(C(=O)N(C)C)ccc1F [Compound 222, N-[5-[(dimethylamino)carbonyl]-2-fluorophenyl]-1-(1,1-dimethylethyl)-3-ethyl-1H-pyrazole-4-carboxamide]
pest or weed control at 62 g/ha (barnyardgrass [1]; [6]): 15%
pest or weed control at 125 g/ha (barnyardgrass [1]; [7]): 75%
pest or weed control at 250 g/ha (barnyardgrass [1]; [8]): 90%
pest or weed control at 500 g/ha (barnyardgrass [1]; [9]): 95%
plant injury at 62 g/ha (rice [2]; 62 g ai/ha, scale 0 to 100 (0 no effect, 100 complete control), read-out: Rice plant response rating): 30%
plant injury at 125 g/ha (rice [2]; [10]): 70%
plant injury at 250 g/ha (rice [2]; [11]): 85%
plant injury at 500 g/ha (rice [2]; [9]): 85%
pest or weed control at 500 g/ha (barnyardgrass [3]; [12]): 75%
pest or weed control at 2000 g/ha (barnyardgrass [3]; [13]): 90%
pest or weed control at 2000 g/ha (barnyardgrass [3]; [14]): 100%
pest or weed control at 500 g/ha (barnyardgrass [3]; [15]): 95%
plant injury at 125 g/ha (rice [4]; 125 g ai/ha): 90%
plant injury at 500 g/ha (rice [4]; 500 g ai/ha, visual rating): 100%
pest or weed control at 62 g/ha (Surinam grass; 62 g ai/ha, scale 0 to 100): 80%
pest or weed control at 250 g/ha (Surinam grass; 250 g ai/ha, scale 0-100): 100%
pest or weed control at 500 g/ha (Surinam grass): 100%
pest or weed control at 500 g/ha (morningglory; [16]): 80%
pest or weed control at 2000 g/ha (morningglory; [17]): 95%
pest or weed control at 2000 g/ha (morningglory; [18]): 100%
pest or weed control at 500 g/ha (morningglory; [19]): 75%
pest or weed control at 62 g/ha ([5]; 62 g ai/ha, scale 0 to 100): 0%
pest or weed control at 250 g/ha ([5]; 250 g ai/ha, scale 0-100): 30%
pest or weed control at 500 g/ha [5]: 30%
pest or weed control at 500 g/ha (large crabgrass; [20]): 80%
pest or weed control at 2000 g/ha (large crabgrass; [21]): 85%
pest or weed control at 2000 g/ha (large crabgrass; [22]): 95%
pest or weed control at 500 g/ha (large crabgrass; [23]): 100%

CCN1N=C(C(C)(C)C)CC1C(=O)Nc1cc(C(=O)N(C)C)ccc1F (stereo not shown) [Compound 268, N-[5-[(dimethylamino)carbonyl]-2-fluorophenyl]-3-(1,1-dimethylethyl)-1-ethyl-4,5-dihydro-1H-pyrazole-5-carboxamide]
pest or weed control at 62 g/ha (barnyardgrass [1]; [6]): 65%
pest or weed control at 125 g/ha (barnyardgrass [1]; [7]): 90%
pest or weed control at 250 g/ha (barnyardgrass [1]; [8]): 95%
pest or weed control at 500 g/ha (barnyardgrass [1]; [9]): 95%
plant injury at 62 g/ha (rice [2]; 62 g ai/ha, scale 0 to 100, read-out: Rice plant response rating): 75%
plant injury at 125 g/ha (rice [2]; [10]): 85%
plant injury at 250 g/ha (rice [2]; [11]): 90%
plant injury at 500 g/ha (rice [2]; [9]): 90%
pest or weed control at 500 g/ha (barnyardgrass [3]; [12]): 80%
pest or weed control at 2000 g/ha (barnyardgrass [3]; [13]): 80%
pest or weed control at 2000 g/ha (barnyardgrass [3]; [14]): 100%
pest or weed control at 500 g/ha (barnyardgrass [3]; [15]): 100%
plant injury at 125 g/ha (rice [4]; 125 g ai/ha): 90%
plant injury at 500 g/ha (rice [4]; 500 g ai/ha, visual rating): 90%
pest or weed control at 62 g/ha (Surinam grass; 62 g ai/ha, scale 0 to 100): 70%
pest or weed control at 250 g/ha (Surinam grass; 250 g ai/ha, scale 0-100): 95%
pest or weed control at 500 g/ha (Surinam grass): 100%
pest or weed control at 500 g/ha (morningglory; [16]): 20%
pest or weed control at 2000 g/ha (morningglory; [17]): 40%
pest or weed control at 2000 g/ha (morningglory; [18]): 25%
pest or weed control at 500 g/ha (morningglory; [19]): 5%
pest or weed control at 62 g/ha ([5]; 62 g ai/ha, scale 0 to 100): 0%
pest or weed control at 250 g/ha ([5]; 250 g ai/ha, scale 0-100): 60%
pest or weed control at 500 g/ha [5]: 90%
pest or weed control at 500 g/ha (large crabgrass; [20]): 50%
pest or weed control at 2000 g/ha (large crabgrass; [21]): 75%
pest or weed control at 2000 g/ha (large crabgrass; [22]): 100%
pest or weed control at 500 g/ha (large crabgrass; [23]): 85%

CCNC(=O)c1ccc(F)c(NC(=O)c2cc(C3(C)CC3)nn2CC)c1 [Compound 300]
Barnyardgrass plant response rating (barnyardgrass [1]; [6]): 35
Barnyardgrass plant response rating (barnyardgrass [1]; [7]): 50
Barnyardgrass plant response rating (barnyardgrass [1]; [8]): 90
Plant response rating, Barnyardgrass (barnyardgrass [1]; [9]): 95
Rice plant response rating (rice [2]; 62 g ai/ha, scale 0 to 100): 40
Rice plant response rating (rice [2]; [7]): 55
Rice plant response rating (rice [2]; [8]): 70
Plant response rating, Rice (rice [2]; [9]): 75
Barnyardgrass plant response rating (barnyardgrass [3]; [24]): 75
Plant response rating, Barnyardgrass (barnyardgrass [3]; [25]): 90
Barnyardgrass plant response rating (barnyardgrass [3]; [26]): 100
Barnyardgrass plant response rating (barnyardgrass [3]; [27]): 90
Rice plant response rating (0 to 100 scale) (rice [4]; 125 g ai/ha, preemergence): 40
Plant response rating, Rice (rice [4]; 500 g ai/ha, visual rating, preemergence): 70
Plant response rating, Surinam Grass (Surinam grass; 62 g ai/ha, scale 0 to 100): 30
Plant response rating, Surinam Grass (Surinam grass; 250 g ai/ha, scale 0-100): 100
Morningglory plant response rating (morningglory; [24]): 80
Plant response rating, Morningglory (morningglory; [25]): 95
Morningglory plant response rating (morningglory; [26]): 100
Morningglory plant response rating (morningglory; [27]): 90
Plant response rating, Sunflower ([5]; 62 g ai/ha, scale 0 to 100): 0
Plant response rating, Sunflower ([5]; 250 g ai/ha, scale 0-100): 5
Crabgrass, Large plant response rating (large crabgrass; [24]): 55
Plant response rating, Crabgrass, Large (large crabgrass; [25]): 90
Crabgrass, Large plant response rating (large crabgrass; [26]): 100
Crabgrass, Large plant response rating (large crabgrass; [27]): 90
